From a melting point compilation (Tetko et al.; mined from patent text by program, amines drawn as free bases though some values may be those of a salt)

melting point [°C]	Compound
185 to 195	COc1cc(N2CCC(N3CCN(C)CC3)CC2)ccc1-c1nc2c(N[C@H]3[C@@H](C(N)=O)[C@@H]4C=C[C@H]3C4)c(Br)cnc2[nH]1
210	COc1cc(C=CC(=O)c2ccc(O)c(CC(=O)O)c2)cc(OC)c1OC
252 to 255	Cc1cc(NC(=O)c2cnn(-c3ccc(C(F)(F)F)cc3)c2C)ccc1N1CCC(N2CCOCC2)CC1
59	CCCCCCCCCCC[C@@H](C[C@@H]1OC(=O)[C@H]1CCCCCC)OC(=O)CC(=O)NC(C)C
45 to 46	CCC(=O)C(CCCCCCOc1ccc2c(c1)OCO2)C(=O)CC
188 to 190	O=C(O)COc1ccc(CCc2ccc(-c3ccc(C(F)(F)F)cc3)cc2)c2c1CCC2
186	CC(=O)Nc1c(C)c(C)c2c(c1N(C)C)CC(C)(C)O2
204 to 207	COC(=O)COc1ccc(C(=O)NC(=O)Nc2ccc(C#N)cc2)cc1
140 to 141	CCOC(=O)CCCCCOc1ccc(C(=O)Nc2ccccc2Oc2ccccc2-c2nnn[nH]2)cc1
129 to 130	CNc1nc2c(C)cccc2c2c1ccn2-c1ccccc1C
150 to 151	O=c1c2c(CCCCCCc3ccccc3)n[nH]c2c2cccnc2n1-c1ccccc1
233	O=C(Nc1nc(C(F)(F)F)co1)C1c2ccccc2Oc2c(F)cccc21 (racemic)
78 to 81	CCC(=O)NC(C)(C)CSc1cc(C)c(Cl)cc1C
99 to 103	CCCCCCCCCCCC1Cc2cc(C(=O)O)ccc2N1 (racemic)
202 to 203	Cc1cc(O)c(Cc2ccc(C(C)C)cc2)c(C)c1NC(=O)CC(C)(C)C
82	CC(C)Nc1cncc(C#N)c1
135 to 137	O=C(NCCC1CCCCCCCCCCC1)C1=C(O)COC1=O
123 to 126	CCCc1c(OCCCCCOc2ccccc2/C=C/C(=O)O)ccc2c1OCCC2=O
151 to 153	O=c1oc(-c2ccccc2)nc2cccc(Cl)c12
64 to 66	CC(C)OC(=O)C=Cc1ccc(Br)cc1
128	O=C(C=Cc1cccc2ccccc12)C=Cc1cccc2ccccc12
147 to 149	Nc1nc(=O)n([C@@H]2CC[C@H](CO)O2)cc1F
152 to 153	COc1ccc(F)cc1N1CCN([C@H]2CC[C@@H](c3c[nH]c4ccc(F)cc43)CC2)CC1
253 to 254	CC(C)n1nc(-c2cc(-c3ncnn3C)c(N)nc2-c2ccccc2)ccc1=O

melting point [°C]	Compound
87 to 88	O=C(O)CCSc1cccc(Br)c1
115 to 117	CCOC(=O)c1cc(C(O)(C(F)(F)F)C(F)(F)F)ccc1N
96 to 98	Nc1ccc(C2CCSCC2)c(F)c1
139 to 141	C1=Cc2ccccc2C(N2CCNCC2)c2ccccc21
41 to 43	CC(C)c1cccc(-c2ccc(F)cc2)c1O
85	CC(=O)[C@@H]1C/C=C(/C)C/C=C/[C@H](C)[C@H](O[Si](C)(C)C(C)(C)C)[C@@H](C)C(=O)C(C)(C)[C@@H](O[Si](C)(C)C(C)(C)C)CC(=O)O1
100 to 102	CC(C)(C)C(=O)N1C(=O)C(C)(C)NC(C)(C)C1=O
198 to 200	CCCc1nc2c(N)nc3cc(Oc4cccc([N+](=O)[O-])c4)ccc3c2n1CC(C)C
75 to 78	CCCCNCCCCCCCCSc1nc(-c2ccccc2)c(-c2ccccc2)[nH]1
126 to 128	CC(=O)NC1Cc2ccccc2C1
87 to 89	CCCOC(=O)c1ccc(OC(=O)c2ccccc2C(=O)Oc2ccc(C(=O)OCCC)cc2)cc1
188 to 192	CCCN(C=O)n1cc(C(=O)OCC)c(=O)c2cc3c(cc21)OCO3
237 to 238	CS(=O)(=O)Nc1cc2oc(Br)c(NC=O)c(=O)c2cc1Oc1ccccc1
92 to 94	Cc1ccc2ccccc2c1NC1COC(=O)C1 (centres undefined)
293	Cc1ccc(S(N)(=O)=O)cc1NC(=O)c1cnn2c(C(F)F)cc(-c3ccc(C(F)(F)F)cc3)nc12
170 to 172	CC(C)Nc1cccc2c1C(=O)c1cccc(NC(C)C)c1C2=O
122 to 123	Cc1nc(N2CCN(CCC3CC3)C2=O)sc1C(=O)NCc1ccc(F)cc1
33 to 35	CCOC(=O)c1c(C)nc(Cl)c([N+](=O)[O-])c1NC(C)CC (centres undefined)
123 to 124	COC(=O)c1cc(C#Cc2ccc(C(=O)OC(C)(C)C)cc2)cnc1Cl
124 to 129	C[C@@H](n1cnc2cc(Cl)ccc2c1=O)[C@](O)(Cn1cncn1)c1ccccc1F
158 to 159	CCC(=O)NC[C@@H]1C[C@H]1c1c(F)ccc2nn(C)cc12 (relative stereo)
165	CCCN(CCC)CC1CCCCN1CCNC(=O)N1c2ccccc2C(=O)Nc2cccnc21 (centres undefined)
112 to 113	O=C(NCc1ccccn1)c1ccc(C(F)(F)F)cc1C(F)(F)F
152 to 155	CC(C)Cn1c(=O)n(C)c(=O)c2c(SCCCO)c(C(=O)c3cccnc3)sc21

melting point [°C]	Compound
192 to 195	CC(=O)SCCC1NSc2cc(S(N)(=O)=O)c(Cl)cc2N1 (centres undefined)
204 to 205	NC(=O)CC1=C(n2nc(-c3c(-c4ccccc4)nn4ccccc34)ccc2=O)CCCC1
55 to 85	CCc1c(C)noc1NS(=O)(=O)c1cccc2c(N(C)C)cccc12
272	c1ccc(-c2cc(-c3nc(-c4ccccc4)nc(-c4ccccc4)n3)c(-c3nccc4ccccc34)c(-c3cc4ccccc4c4ccccc34)c2)cc1
143 to 144	NC(=O)Nc1ccc(CCOCc2ccccc2-c2ccccc2)cc1
106 to 108	CC(C)c1sc(-c2nccs2)c2c1C(=O)CC(C)(C)C2
> 250	NCC1Cc2cc(C(F)(F)F)cc(-c3ccc(C(F)(F)F)cc3)c2O1 (centres undefined)
83 to 84	C#CCNc1onc(-c2ccccc2)c1Cl
135 to 137	CC(C)(C)OC(=O)NC1COCCCC=CC2CC2(C(=O)NS(=O)(=O)C2CC2)NC(=O)C2CC(OC(=O)c3ccccc3)CN2C1=O (centres undefined)
240 to 242	C[C@@H]1S[C@@H](C(=O)Nc2ccc(CN3C(=O)COC3=O)cc2)Cc2cc3c(cc2C1=O)OCO3
57 to 58	O=Cc1c(F)cc(Br)cc1Br
301 to 304	Cc1nc(N)nc(N)c1N1CCN(c2ccc(S(=O)(=O)N(C)C)cc2)CC1
137 to 142	CNC(=NCCSSCc1nc[nH]c1C)NC#N
314 to 316	O=c1c2nc[nH]c2nc2n1CCN2Cc1ccc(Cl)cc1
140 to 145	CCc1ccc(C(=O)CCCCCN2CCC(CNC(=O)c3cc(Cl)c(N)cc3OC)CC2)cc1
210 to 212	Nc1ccc(C(=O)N2Cc3cccn3Cc3ccccc32)c(Cl)c1
78 to 81	CN(C)C=NC(C#N)=CN(C)C
176 to 177	CC(C)(C)c1ccc(NC(=O)c2ccc(C3=NCCS3)cc2)cc1
105 to 106	N#Cc1ccc2c(c1)COC2(c1ccc(F)cc1)c1ccc(F)cc1
118 to 120	Cc1noc(CC(=O)Nc2ccccc2Cl)n1
109 to 112	Fc1ccc2[nH]cc(Cc3cccnc3)c2c1
109 to 112	O=C/C=C/c1c(Cl)cc(Cl)cc1OCc1ccccc1
38 to 40	Cc1ccc([C@@H](O)C=CC(C)(C)C)cc1
115 to 118	CCOC(=O)n1c2ccccc2c(=O)n1C(c1ccccc1)c1ccccc1

melting point [°C]	Compound
174 to 176	O=C1N(Cc2ccc(F)cn2)c2ccccc2C12COc1cc3c(cc12)OCCO3 (centres undefined)
134	Cc1ccc(CN(O)C(N)=O)s1
218 to 221	Nc1nc(O)c2ncn(C=C3CC3CO)c2n1 (centres undefined)
159 to 160	CCS(=O)(=O)Nc1nc(CN2CCN(C(c3ccccc3)c3ccccc3)CC2)cs1
125 to 128	CC1=C(C(=O)OCC2CCN(Cc3ccccc3)C2)C(c2cccc([N+](=O)[O-])c2)c2c(ccnc2OC(C)C)N1 (centres undefined)
126 to 127	COc1cc(CCCC2SC(=O)NC2=O)ccc1OCc1coc(CCc2ccccc2)n1 (centres undefined)
38 to 40	CC(C)(C)OC(=O)C[C@@H](CC1CCCC1)C(=O)N1CCCCC1
222 to 224	O=C1CCCc2[nH]c3c(F)cccc3c21
150 to 151	Cn1ncc(/C=C/C(=O)Nc2ccc(CC(C)(C)C)cc2)c1-c1ccc(F)cc1
194 to 196	COCCOc1ccc(/C=C/C(=O)O)c(OCc2nc(-c3ccccc3)oc2C)c1
71 to 72	CC(CN(C)C)Nc1ccnc2cc3c(cc12)OCO3 (centres undefined)
264 to 266	Cc1nc2cc(C(C)(C)C)c(O)cc2o1
171 to 172	Cc1cc(C)n2nc(-c3ccccc3)c(CC(=O)N(C)C)c2n1
95 to 96	COc1ccc(COc2coc(COC3CCCCO3)cc2=O)cc1 (centres undefined)
173 to 175	O=C1CC(CO)C(c2ccc(N3CCOCC3)c(Cl)c2)=NN1 (centres undefined)
116 to 118	OCCCNc1nc2ccccc2n1-c1ccccc1
164 to 166	CC(=O)OCC1CCCn2c(c(C3=C(c4cn(C)c5ccccc45)C(=O)OC3=O)c3ccccc32)C1 (centres undefined)
122 to 124	NS(=O)(=O)c1cc2cc(N(Cc3ccccc3)Cc3ccccc3)ccc2s1
140 to 141	CCCCC1C2CCCC(C2=O)C2(O)CCCCC12 (centres undefined)
94 to 95	C=Cc1nc(-c2ccco2)c2ncn(Cc3ccc(OC)cc3)c2n1
207 to 209	CC(C)(C)OC(=O)N(CCc1ccc(C(F)(F)F)cc1)C1CCN(C[C@@]2(C)Cn3cc([N+](=O)[O-])nc3O2)CC1
338 to 339	O=c1[nH]c(Nc2ccccc2)nc2c1ncn2CCO

Compound	melting point [°C]
Cc1cc(C)c(OP(=O)(C(=O)c2c(C)cc(C)cc2C)c2ccccc2)c(C)c1 (centres undefined)	94 to 96
Cc1nc2cc(NC(=O)c3cc4cc(Cl)ncc4n3Cc3cccc(F)c3)ccc2n1C	240 to 242
CC1=NN=C(c2cccc(N)c2)c2cc3c(cc2C1)OCO3	190 to 191
N#Cc1nn(-c2c(Cl)cc(C(F)(F)F)cc2Cl)c(N)c1-c1cc(Cl)oc1Cl	193 to 194
CCC(=O)c1cn(-c2c(Cl)cc(C(F)(F)F)cc2Cl)nc1C#N	143
